Test results from patent publication US20080015260A1, “Pharmaceutical compositions having improved stability and methods for preparation and use” (Kiel Laboratories, Inc., priority 2006, published 2008).
Structures can show the parent of a compound that is named as a salt.

Test: Conversion of API to insoluble tannate complex in reaction mixtures (centrifugation, % converted insoluble)
Format: physicochemical
Conditions: for conversion to the tannate complex at reduced Neusilin® levels: ½ (4.4 wt%) and ¼ (2.2 wt%) Neusilin®
Procedure: The following example is a series of reaction mixtures for suspension formulations containing phenylephrine HCl, tannic acid and MAS or various concentrations of Neusilin®:
Analysis of the above suspensions was carried out by removing 10 gms of product and centrifuging. The amount of API found in the insoluble portion of the suspension was reported as the % converted insoluble and the liquid portion as the % converted soluble.
Analysis of the above suspension was carried out by removing 10 gms of product and centrifuging. The amount of API found in the insoluble portion of the suspension was reported as the % converted insoluble and the liquid portion as the % converted soluble.

Row | increase in conversion to the tannate complex with Neusilin® in the suspension (Neusilin® 8.7 wt% versus MAS 8.7 wt%, FIG. 1) | conversion to the tannate complex at reduced Neusilin® levels | SMILES | effect of Neusilin® on level of conversion to the tannate complex compared to MAS (Neusilin® versus MAS, FIG. 2, FIG. 3)
1 | > 30% | same increase in conversion | CNC[C@H](O)c1cccc(O)c1 [phenylephrine, Phenylephrine HCl] | –
2 | – | same level of conversion | CCN(CC)CCOCCOC(=O)C1(c2ccccc2)CCCC1 [carbetapentane, Carbetapentane Citrate] | does not significantly affect the level of conversion
